Columns and labels:
Test in all cases: emission titration (737 nm), Bard equation
Conditions in all cases: K+ (50 mM potassium phosphate), pH 7, enantiomer by table order, per base
[1] = test system: d(ATTATTATTATATTA)/d(TAATATAATAATAAT) (AT DNA) (DNA, duplex) ATTATTATTATATTA/TAATATAATAATAAT
[2] = test system: d(GCGCGCGCGC)2; (GC)5 (DNA, duplex) GCGCGCGCGC
[3] = test system: d(CGCAAATTTGCG)2 (DNA, duplex) CGCAAATTTGCG
[4] = test system: d(CGCGAATTCGCG)2 (DNA, duplex) CGCGAATTCGCG

KDNA ([1]; site size n 2.25 ± 0.05 base pairs): 4e+06 M⁻¹
KDNA ([1]; site size n 2.28 ± 0.05 base pairs): 3e+06 M⁻¹
KDNA ([2]; site size n 3.1 ± 0.1 base pairs): 770000 M⁻¹
KDNA ([2]; site size n 4.8 ± 0.2 base pairs): 610000 M⁻¹
KDNA ([3]; site size n 1.92 ± 0.04 base pairs): 1.7e+06 M⁻¹
KDNA ([3]; site size n 2.10 ± 0.09 base pairs): 480000 M⁻¹
KDNA ([4]; site size n 1.6 ± 0.1 base pairs): 1.4e+06 M⁻¹
KDNA ([4]; site size n 1.7 ± 0.1 base pairs): 510000 M⁻¹
Structure (SMILES): Cc1cnc2c(ccc3c(C)c(C)cnc32)c1C.Cc1cnc2c(ccc3c(C)c(C)cnc32)c1C.[Cr+3].c1ccc2nc3c4cccnc4c4ncccc4c3nc2c1
